# Measured values from PMC7489219 (Molecular Brain, 2020).
# Structures can show the parent of a compound that is named as a salt.
# System: T1, primary mouse cortical neurons
# T1 construct: primary cortical neurons, DIV 10
# Test: cells
# Parameters: Protection from NMDA-induced (30 uM, 10 min) neuronal death; Hoechst nuclear morphology by automated microscopy
# Settings: Cortical neurone, 20 h, read-out: % inhibition, inhibition of NMDA-induced cell death (protection score), 30 min pre-treatment
# Method in brief: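 On DIV 10, primary mouse cortical neurons were given compound at 10 μM for 30 min at 37 °C, then 30 μM NMDA for 10 min, washed, and kept 20 h with compound. Dead cells were scored by nuclear morphology, and % protection was derived from survival relative to vehicle + NMDA and untreated controls.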
row,SMILES,inhibition at 10 µM
1,"CC(C)(C)C(=O)OCOP(=O)(COCCn1cnc2c(N)ncnc21)OCOC(=O)C(C)(C)C [Adefovir Dipivoxil (Preveon, Hepsera)]",18.8%
2,NC(=O)N/N=C/c1ccc([N+](=O)[O-])o1 [Nitrofurazone (Nitrofural)],29.8%
3,CC[C@H]1OC(=O)[C@H](C)[C@@H](O[C@H]2C[C@@](C)(OC)[C@@H](O)[C@H](C)O2)[C@H](C)[C@@H](O[C@@H]2O[C@H](C)C[C@H](N(C)C)[C@H]2O)[C@](C)(O)C[C@@H](C)C(=O)[C@H](C)[C@@H](O)[C@]1(C)O [Erythromycin (E-Mycin)],29.4%
4,"CC[C@H]1OC(=O)[C@H](C)[C@@H](O[C@H]2C[C@@](C)(OC)[C@@H](O)[C@H](C)O2)[C@H](C)[C@@H](O[C@@H]2O[C@H](C)C[C@H](N(C)C)[C@H]2O)[C@](C)(OC)C[C@@H](C)C(=O)[C@H](C)[C@@H](O)[C@]1(C)O [Clarithromycin (Biaxin, Klacid)]",-1.54%
5,CC(C)[C@@H](C)/C=C/[C@@H](C)[C@H]1CC[C@H]2C3=CC=C4C[C@@H](O)CC[C@]4(C)[C@H]3CC[C@]12C [Ergosterol],-1.47%
6,CCOC(=O)c1ncn2c1CN(C)C(=O)c1cc(F)ccc1-2 [Flumazenil],-13.8%
7,Cc1ccc(O)c([C@H](CCN(C(C)C)C(C)C)c2ccccc2)c1 [Tolterodine tartrate (Detrol LA)],-2.31%
8,CC(=O)O[C@H]1CC[C@@]2(C)C(=CC[C@@H]3[C@@H]2CC[C@]2(C)C(c4cccnc4)=CC[C@@H]32)C1 [Abiraterone Acetate (CB7630)],-0.808%
9,CCn1cc(C(=O)O)c(=O)c2cc(F)c(N3CCNC(C)C3)c(F)c21 (stereo not drawn) [Lomefloxacin hydrochloride (Maxaquin)],3.08%
10,CC1Cc2ccccc2N1NC(=O)c1ccc(Cl)c(S(N)(=O)=O)c1 (stereo not drawn) [Indapamide (Lozol)],0.426%
11,O=C(O)C1=C[C@@H](O)[C@@H](O)[C@H](O)C1 [Shikimic acid (Shikimate)],0.278%
12,Cc1ccc(-n2[nH]c(C)c(N=Nc3cccc(-c4cccc(C(=O)O)c4)c3O)c2=O)cc1C [Eltrombopag (SB-497115-GR)],93.9%
13,CCCCCCOC(=O)NC(=N)c1ccc(NCc2nc3cc(C(=O)N(CCC(=O)OCC)c4ccccn4)ccc3n2C)cc1 [BIBR-1048 (Dabigatran)],0.466%
14,Cc1ccc(Nc2nccc(N(C)c3ccc4c(C)n(C)nc4c3)n2)cc1S(N)(=O)=O [Pazopanib HCl],-2.36%
15,CCOC(=O)C1=C(COCCN)NC(C)=C(C(=O)OC)C1c1ccccc1Cl (stereo not drawn) [Amlodipine besylate (Norvasc)],-2.44%
16,CC(=O)N1CCN(c2ccc(OC[C@@H]3CO[C@@](Cn4ccnc4)(c4ccc(Cl)cc4Cl)O3)cc2)CC1 (racemic) [Ketoconazole],-15.9%
17,O=c1[nH]c(=O)n([C@H]2C[C@H](O)[C@@H](CO)O2)cc1C(F)(F)F [Trifluridine (Viroptic)],9.42%
18,COc1ccc(-c2ccc3cc(C(=O)O)ccc3c2)cc1[C@]12C[C@H]3C[C@H](C[C@H](C3)C1)C2 [Adapalene],63.6%
19,N=C(N)NC(=O)c1nc(Cl)c(N)nc1N [Amiloride hydrochloride (Midamor)],-0.812%
20,C[C@@H]1[C@H](O)[C@@H](C)/C=C/C=C/CC/C=C/C=C/C=C/C=C/[C@H](O[C@@H]2O[C@H](C)[C@@H](O)[C@H](N)[C@@H]2O)C[C@@H]2O[C@](O)(C[C@@H](O)[C@H](O)CC[C@@H](O)C[C@@H](O)C[C@@H](O)CC(=O)O[C@H]1C)C[C@H](O)[C@H]2C(=O)O [Nystatin (Mycostatin)],4%
21,COc1ccc(-c2coc3cc(O)ccc3c2=O)cc1 [Formononetin (Formononetol)],-0.533%

row,SMILES,inhibition at 10 µM
1,CCc1cc(C(N)=S)ccn1 [Ethionamide],27.7%
2,Cc1nc2n(c(=O)c1CCN1CCC(c3noc4cc(F)ccc34)CC1)CCCC2O (stereo not drawn) [Paliperidone (Invega)],-1.54%
3,O=C1CCC[C@@H]2[C@H]3CCCN4CCC[C@@H](CN12)[C@@H]34 [Matrine ((+)-Matrine)],-4.08%
4,CC(C)C(=O)Oc1ccc(CO)cc1[C@H](CCN(C(C)C)C(C)C)c1ccccc1 [Fesoterodine fumarate (Toviaz)],-0.933%
5,O=c1c(O)c(-c2ccc(O)cc2)oc2cc(O)cc(O)c12 [Kaempferol],-2.58%
6,Cc1cn([C@H]2C=C[C@@H](CO)O2)c(=O)[nH]c1=O [Stavudine],6.33%
7,C[C@@H]1O[C@@H](OC[C@H]2O[C@@H](Oc3c(-c4ccc(OCCO)c(OCCO)c4)oc4cc(OCCO)cc(O)c4c3=O)[C@H](O)[C@@H](O)[C@@H]2O)[C@H](O)[C@H](O)[C@H]1O [Troxerutin],23.8%
8,CN1CCN2c3ccccc3Cc3ccccc3C2C1 (stereo not drawn) [Mianserin hydrochloride],-2.1%
9,NC(=O)Cc1cccc(C(=O)c2ccccc2)c1N [Nepafenac],-12.2%
10,CC(C)=CCC[C@]1(C)C=Cc2c(O)c3c(c(CC=C(C)C)c2O1)O[C@]12C(=C[C@@H]4C[C@H]1C(C)(C)O[C@@]2(C/C=C(/C)C(=O)O)C4=O)C3=O [Gambogic Acid],14.8%
11,O=C(O)/C=C/c1ccc(Cn2ccnc2)cc1 [Ozagrel],-9.99%
12,NNc1nncc2ccccc12 [Hydralazine hydrochloride],-0.625%
13,NC(CO)C(=O)NNCc1ccc(O)c(O)c1O (stereo not drawn) [Benserazide],6.78%
14,CCCCC(=O)N(Cc1ccc(-c2ccccc2-c2nn[nH]n2)cc1)[C@H](C(=O)O)C(C)C [Valsartan (Diovan)],-0.714%
15,C#C[C@]1(O)CC[C@H]2[C@@H]3CCc4cc(OC)ccc4[C@H]3CC[C@@]21C [Mestranol],11.8%
16,C[C@]12C=CC(=O)C=C1CC[C@H]1[C@@H]3C[C@@H](O)[C@](O)(C(=O)CO)[C@@]3(C)C[C@H](O)[C@@]12F [Triamcinolone (Aristocort)],16.3%
17,CN1c2ccccc2C(=O)N2CCc3c([nH]c4ccccc34)[C@H]21 [Evodiamine (Isoevodiamine)],0.0207%
18,O=c1c2ccccc2nc2n1CCc1c-2[nH]c2ccccc12 [Rutaecarpine (Rutecarpine)],5.35%
19,CC(C)(C)NCC(O)c1ccc(O)c(CO)c1 (stereo not drawn) [Salbutamol sulfate (Albuterol)],-7.52%
20,COc1ccc2cc1Oc1ccc(cc1)C[C@H]1c3cc(c(OC)cc3CCN1C)Oc1c(OC)c(OC)cc3c1[C@H](C2)N(C)CC3 [Tetrandrine (Fanchinine)],9.82%
21,CS(=O)(=O)CCNCc1ccc(-c2ccc3ncnc(Nc4ccc(OCc5cccc(F)c5)c(Cl)c4)c3c2)o1 [Lapatinib Ditosylate (Tykerb)],4.76%

row,SMILES,inhibition at 10 µM
1,CCC1(c2ccccc2)C(=O)NCNC1=O [Primidone (Mysoline)],27.9%
2,CCCCN1CCCCC1C(=O)Nc1c(C)cccc1C (stereo not drawn) [Bupivacaine hydrochloride (Marcain)],-1.92%
3,COc1ccc(CCC(=O)c2c(O)cc(O[C@@H]3O[C@H](CO)[C@@H](O)[C@H](O)[C@H]3O[C@@H]3O[C@@H](C)[C@H](O)[C@@H](O)[C@H]3O)cc2O)cc1O [Neohesperidin dihydrochalcone (Nhdc)],-3.39%
4,S=c1[nH]cnc2nc[nH]c12 [Mercaptopurine],-8.52%
5,Cc1cc(=O)oc2cc(O)ccc12 [4-Methylumbelliferone (4-MU)],-0.113%
6,Cn1c(=O)c2c(ncn2CC(O)CO)n(C)c1=O (stereo not drawn) [Dyphylline (Dilor)],-0.361%
7,C[C@]12CCC(=O)C=C1[C@@H]1C[C@@H]1[C@H]1[C@@H]3[C@@H]4C[C@@H]4[C@@]4(CCC(=O)O4)[C@@]3(C)CC[C@@H]12 [Drospirenone],-0.385%
8,COc1ccc(-c2cc(=O)c3c(O)cc(O[C@@H]4O[C@H](CO[C@@H]5O[C@@H](C)[C@H](O)[C@@H](O)[C@H]5O)[C@@H](O)[C@H](O)[C@H]4O)cc3o2)cc1O [Diosmin],-0.0881%
9,NC(=O)CC[C@H](N)C(=O)O [L-Glutamine],-2.01%
10,C[C@]12CC[C@@H]3c4ccc(O)cc4C[C@@H](CCCCCCCCC[S+]([O-])CCCC(F)(F)C(F)(F)F)[C@H]3[C@@H]1CC[C@@H]2O (stereo partly drawn) [Fulvestrant (Faslodex)],-2.64%
11,COc1ccc(-c2coc3cc(O)cc(O)c3c2=O)cc1 [Biochanin A (4-Methylgenistein)],3%
12,NNC(=O)c1ccncc1 [Isoniazid (Tubizid)],45.6%
13,Cc1cnc(C(=O)O)c[n+]1[O-] [Acipimox],-0.00389%
14,COCCOC(=O)C1=C(C)NC(C)=C(C(=O)OC(C)C)C1c1cccc([N+](=O)[O-])c1 (stereo not drawn) [Nimodipine (Nimotop)],-0.576%
15,CN(C)CCCN1c2ccccc2Sc2ccc(Cl)cc21 [Chlorpromazine (Sonazine)],-4.78%
16,O=C(O)c1cc(O)c2c(c1)C(=O)c1cccc(O)c1C2=O [Rhein (Monorhein)],5.39%
17,NC(=O)c1cnccn1 [Pyrazinamide (Pyrazinoic acid amide)],15.2%
18,Cc1c(N)nc([C@H](CC(N)=O)NC[C@H](N)C(N)=O)nc1C(=O)N[C@H](C(=O)N[C@H](C)[C@@H](O)[C@H](C)C(=O)N[C@H](C(=O)NCCc1nc(-c2nc(C(=O)NCCC[S+](C)C)cs2)cs1)[C@@H](C)O)[C@@H](O[C@@H]1O[C@@H](CO)[C@@H](O)[C@H](O)[C@@H]1O[C@H]1O[C@H](CO)[C@@H](O)[C@H](OC(N)=O)[C@@H]1O)c1cnc[nH]1 [Bleomycin sulfate],-2.58%
19,COc1ccccc1OCC(O)COC(N)=O (stereo not drawn) [Methocarbamol (Robaxin)],-0.235%
20,C[C@@H](c1ncncc1F)[C@](O)(Cn1cncn1)c1ccc(F)cc1F [Voriconazole],17.5%
21,"C[C@H]1[C@H](NC(=O)/C(=N\OC(C)(C)C(=O)O)c2csc(N)n2)C(=O)N1S(=O)(=O)O [Aztreonam (Azactam, Cayston)]",-1.22%
